This note sets out measurements from patent US8586598B2, “CDK inhibitor salts” (Nerviano Medical Sciences S.R.L., priority 2009, dated 2013).

In brackets after ≈: the same amount, converted by molar mass. Read-outs that look alike come from different tables or passages of the source.

A short description of series [1]: Solubility of compound 125 salts and free base (96-well plate, shaken at RT 30 minutes, filtered, HPLC). It counts as physicochemical. The conditions noted are these: thermodynamic from solid.
Series [2] is described as follows: Solubility (no method given). It counts as physicochemical.

Take `CNC(=O)c1nn(C)c2c1C(C)(C)Cc1cnc(Nc3ccc(N4CCN(C)CC4)cc3)nc1-2` [compound 125, 8-[4-(4-methyl-piperazin-1-yl)-phenylamino]-1,4,4-trimethyl-4,5-dihydro-1H-pyrazolo[4,3-h]quinazoline-3-carboxylic acid methylamide]: the solubility at 30 min in series [1] (10% polysorbate 80 in 5% glucose solution, aqueous with cosolvent or surfactant or cyclodextrin) is 800 µg/mL; in series [1] (50% polyethylene glycol 400 in 5% glucose solution, aqueous with cosolvent or surfactant or cyclodextrin, read-out: solubility in 50% polyethylene glycol 400 in 5% glucose solution) it was 7200 µg/mL; in series [1] (saline or isotonic, 5% glucose solution, RT, 30 minutes, read-out: solubility in 5% glucose solution) it was below 100 µg/mL; in series [1] (formulated as hydrochloride in situ salt, read-out: solubility when formulated as hydrochloride in situ salt) it was 10000 µg/mL. The solubility in series [2] (5% dextrose solution, saline or isotonic, read-out: solubility in 5% dextrose solution) is below 100 µg/mL; in series [2] (HCl in situ salt formulation, formulated as HCl in situ salt, read-out: solubility when formulated as HCl in situ salt), at least 10000 µg/mL; in series [2] (aqueous 10% Polysorbate 80, aqueous with cosolvent or surfactant or cyclodextrin), around 800 µg/mL (≈ 1740 µM); in series [2] (aqueous 50% Polyethylene Glycol 400, aqueous with cosolvent or surfactant or cyclodextrin, read-out: solubility in aqueous 50% Polyethylene Glycol 400) it was around 8000 µg/mL (≈ 17400 µM); in series [2] (water, read-out: aqueous solubility), below 100 µg/mL.

By solubility is commonly meant the dissolved amount per volume that the medium holds.
